Reference: patent US12599128B2, “Composition and method for improving agronomic traits of a plant” (THE BOARD OF TRUSTEES OF THE UNIVERSITY OF ILLINOIS, priority 2024, dated 2026)

Tests used:
Assay type in all cases: in vivo
[1] = test system: soybean plants (shoot apical meristem); assay: Field trial 1: soybean seed production after spraying the shoot apical meristem
Procedure: (§1) FIG. 1 provides an example of an increase in soybean seed production following the removal of apical dominance by spraying with a double pass of 0.1M methyl decanoate (199.0±14.14 seeds/plant on average) at the V5 stage of growth compared to untreated controls (160.47±5.33 seeds/plant on average) conducted in Pleasant Plains, Illinois. […] Asterisks show significance differences at the 0.05 level.
Field trial 1 was conducted in Pleasant Plants, Illinois. A single soybean variety was used in the field trial. The soybean variety was planted in 20 plots. Each plot was composed of 8 rows of plants spaced 30 inches apart and was 50 feet long by 20 feet wide. Soybeans were treated with 0.10 M methyl decanoate spray. An undiluted surfactant, polyoxyethylene sorbitan monolaurate, was added in equal weight to the fatty ester. Additional spray was applied by completion of a second pass with 0.10 M methyl decanoate spray. The second pass was completed immediately after the initial treatment of each row to saturate the apical meristem.
Soybean plants were sprayed using an individual chemical spray backpack. The plants were sprayed with approximately 2.5 gallons/1000 sq feet of 0.1 M (or an equivalent of 110 gallons/acre) with the double pass. Soybean plants were sprayed with methyl decanoate at the V5 growth stage.
The overall experiment was designed to distribute untreated control plots and mechanically clipped plants at the same growth stage with the methyl decanoate treated variety across the test field.

[2] = test system: soybean plants (shoot apical meristem); assay: Field trial 2: soybean seed production after spraying the shoot apical meristem
Procedure: FIG. 2 provides an example of an increase in soybean seed production following the removal of apical dominance by spraying with a double pass of 0.1M methyl decanoate (220.6±21.96 seeds/plant on average) at the V3 stage of growth compared to untreated controls (147.88±13.59 seeds/plant on average) conducted in Mt. Pulaski, Illinois. […] Asterisks show significance differences at the 0.05 level, + indicates a marginally significant difference at <0.10.
Field trial 2 was conducted at GroAlliance in Mt Pulaski, Illinois and planted with a soybean variety. Soybean plants were treated with a spray containing 0.10 M methyl decanoate and polyethylene sorbitan monolaurate. Soybean plants were sprayed using individual chemical backpack spray units. The soybean plants were treated with methyl decanoate at or between the growth stages of V3 and V4.
The test field was subdivided into plots with the dimensions of five rows by 10 feet. Two plots were designated for each soybean variety for spray treatment and distributed geographically across the full test field. Untreated control plots and mechanically clipped plants at the same growth stage were adjacent to the test plot areas.

[3] = test system: soybean plants (shoot apical meristem); assay: Field trial 3: soybean seed production after spraying the shoot apical meristem
Procedure: as §1, with “FIG. 3” for “FIG. 1”, “decanoate (97.85±4.43” for “decanoate (199.0±14.14”, “the V4-V6” for “the V5”, “controls (79.81±3.09” for “controls (160.47±5.33”, “in Lowell, Indiana.” for “in Pleasant Plains, Illinois.”
Field trial 3 was conducted in Lowell, Indiana and a single soybean variety was tested. Soybean plants were treated with a double pass of methyl decanoate at a concentration of 0.10 M. The methyl decanoate spray contained an undiluted surfactant, polyoxyethylene sorbitan monolaurate, that was added in equal weight to the fatty ester.
Soybean plants were treated the methyl decanoate spray using a backpack spray unit. Soybeans were sprayed in between growth stages V4-V6. The test plots were 21 rows by 50 feet.

## CCCCCCCCCC(=O)OC [methyl decanoate]
[1]; 0.10 M spray with polyoxyethylene sorbitan monolaurate, V5 growth stage
  seed yield compared to untreated control plants (in words): increased seed yield
[1]; double pass of 0.1M spray at V5 stage, Pleasant Plains, Illinois, F=3.33, p=0.046
  higher seed production than the untreated control: 24%
[1]; double pass of 0.1M spray at V5 stage, Pleasant Plains, Illinois, untreated controls 160.47±5.33
  soybean seed production (seeds/plant on average): 199.0±14.14 seeds/plant
[2]; 0.10 M spray with surfactant, at or between V3 and V4
  seed yield compared to untreated control plants (in words): increased seed yield
[2]; double pass of 0.1M spray at V3 stage, Mt. Pulaski, Illinois, F=2.74, p=0.084
  higher seed production than the untreated control: 38.4%
[2]; double pass of 0.1M spray at V3 stage, Mt. Pulaski, Illinois, untreated controls 147.88±13.59
  soybean seed production (seeds/plant on average): 220.6±21.96 seeds/plant
[3]; double pass 0.10 M spray with polyoxyethylene sorbitan monolaurate, V4-V6
  seed yield compared to untreated control plants (in words): increased seed yield
[3]; double pass of 0.1M spray at V4-V6 stage, Lowell, Indiana, F=5.63, p=0.005
  higher seed production than the untreated control: 22.6%
[3]; double pass of 0.1M spray at V4-V6 stage, Lowell, Indiana, untreated controls 79.81±3.09
  soybean seed production (seeds/plant on average): 97.85±4.43 seeds/plant
